Experimental data as given in patent publication US20230151049A1, “Compounds Useful in HIV Therapy” (priority 2020, published 2023).
Where “and” joins values, the source holds several entries; their conditions need not be identical. Identical values can stand only once. Like-named read-outs stand apart in the source and are kept apart here.

Assay: EFdA Rat PK Studies (subcutaneous and intramuscular groups), plasma concentration by LC-MS/MS
Type: in vivo, Wistar Han rats
Conditions: for Assayed Concentrations of EFdA, individual rats / Assayed Concentrations of EFdA, Mean / concentration at 0.5 h / concentration at 1 h / concentration at 4 h / concentration at 7 h / concentration at 24 h / concentration at 48 h / concentration at 72 h / concentration at 6 day / concentration at 25 day: plasma; for concentration at 0.5 h / concentration at 1 h / concentration at 4 h / concentration at 7 h / concentration at 24 h / concentration at 48 h / concentration at 72 h / concentration at 6 day / concentration at 25 day: male, Wistar Han, rat
From the text: Protocol for EFdA Rat PK Studies Conducted at Charles River Laboratories, NY.
A total of seven naïve male Wistar Han rats, 200-250 g, were received from Charles River Laboratories, Kingston, N.Y. All animals were received from the supplier equipped with a surgically-implanted jugular vein catheter (JVC) for blood sample collection. Following an acclimation period, the animals were assigned to the study based on acceptable health as determined by a staff veterinarian and catheter patency. Animals were placed into two groups of 3 rats per group. Fasting of the animals before or after dosing was not required.
On Day 1 each animal in Group 1 received a single subcutaneous injection of prepared test article at a target dose level of 20 mg/kg and at a dose volume of 0.33 mL/kg. Each animal in Group 2 received a single intramuscular injection of prepared test article into a thigh muscle at a target dose level of 20 mg/kg and at a dose volume of 0.33 mL/kg. The injection sites were shaved prior to dosing and identified with an indelible marker for daily monitoring during the study. The animals were manually restrained for dosing and were not sedated. The dose suspension was mixed well by inversion before each dose to ensure homogeneity. All dosing was performed as detailed in the study protocol and was completed without incident. […] In addition, all animals are monitored twice daily by the veterinary staff for clinical abnormalities.
Blood samples were collected from the study animals as detailed in the sample collection Table 2 below.
Each blood sample for PK (250 μL) was collected from the jugular vein catheter or by venipuncture of a jugular vein. The blood was transferred to a tube containing NaF/Na2EDTA anticoagulant and inverted several times to mix. The blood samples were maintained on crushed ice before centrifugation at 2200×g for 10 minutes at 5° C. to isolate plasma. The resulting plasma samples were transferred to individual polypropylene tubes in a 96-well plate format and immediately placed on dry ice until storage at nominally −80° C. prior to analysis.
The PK plasma samples were analyzed by the Testing Facility to determine the concentration of EFdA using an LC-MS/MS Research Grade Assay (RGA-1) with sensitivity to 0.1 ng/mL. Following review of sample analysis data through Day 29, further sample analysis was discontinued and the study was terminated. The individual and mean plasma concentration-time data are presented in Tables 3 and 4 and mean concentration-time profiles are shown in FIGS. 1 and 2.

Structure (SMILES): C#C[C@]1(CO)O[C@@H](n2cnc3c(N)nc(F)nc32)C[C@@H]1O [EFdA, (2R,3S,5R)-5-(6-amino-2-fluoro-9H-purin-9-yl)-2-ethynyl-2-(hydroxymethyl)tetrahydrofuran-3-ol]
- Assayed Concentrations of EFdA, individual rats (0.5 hr, IM 20 mg/kg): 1150 ng/mL and 684 ng/mL
- Assayed Concentrations of EFdA, individual rats (0.5 hr, SC 20 mg/kg, 20 mg/kg): 1000 ng/mL and 640 ng/mL and 2210 ng/mL
- Assayed Concentrations of EFdA, individual rats (1 hr, IM 20 mg/kg): 1640 ng/mL and 1400 ng/mL
- Assayed Concentrations of EFdA, individual rats (1 hr, SC 20 mg/kg, 20 mg/kg): 1160 ng/mL and 1040 ng/mL and 3030 ng/mL
- Assayed Concentrations of EFdA, individual rats (4 hr, IM 20 mg/kg): 436 ng/mL and 733 ng/mL
- Assayed Concentrations of EFdA, individual rats (4 hr, SC 20 mg/kg, 20 mg/kg): 676 ng/mL and 708 ng/mL
- Assayed Concentrations of EFdA, individual rats (7 hr, IM 20 mg/kg): 241 ng/mL and 191 ng/mL and 426 ng/mL
- Assayed Concentrations of EFdA, individual rats (7 hr, SC 20 mg/kg, 20 mg/kg): 372 ng/mL and 216 ng/mL
- Assayed Concentrations of EFdA, individual rats (24 hr, IM 20 mg/kg): 24.7 ng/mL and 1.96 ng/mL and 32.6 ng/mL
- Assayed Concentrations of EFdA, individual rats (24 hr, SC 20 mg/kg, 20 mg/kg): 6.70 ng/mL and 14.7 ng/mL and 2.53 ng/mL
- Assayed Concentrations of EFdA, individual rats (48 hr, IM 20 mg/kg): 5.25 ng/mL and 0.369 ng/mL and 0.915 ng/mL
- Assayed Concentrations of EFdA, individual rats (48 hr, SC 20 mg/kg, 20 mg/kg): 0.713 ng/mL and 0.543 ng/mL
- Assayed Concentrations of EFdA, individual rats (72 hr, IM 20 mg/kg): 0.316 ng/mL and 0.241 ng/mL
- Assayed Concentrations of EFdA, individual rats (72 hr, SC 20 mg/kg, 20 mg/kg): 0.270 ng/mL and 0.201 ng/mL
- Assayed Concentrations of EFdA, individual rats (Day 6, IM 20 mg/kg): BQL (BQL—Below Quantitation Limit, <0.100 ng/mL) and 0.103 ng/mL
- Assayed Concentrations of EFdA, individual rats (Day 6, SC 20 mg/kg, 20 mg/kg): BQL (BQL—Below Quantitation Limit, <0.100 ng/mL)
- Assayed Concentrations of EFdA, Mean (Day 8, IM 20 mg/kg): BQL (BQL—Below Quantitation Limit, <0.100 ng/mL)
- Assayed Concentrations of EFdA, individual rats (Day 8, IM 20 mg/kg): BQL (BQL—Below Quantitation Limit, <0.100 ng/mL)
- Assayed Concentrations of EFdA, Mean (Day 8, SC 20 mg/kg): BQL (BQL—Below Quantitation Limit, <0.100 ng/mL)
- Assayed Concentrations of EFdA, individual rats (Day 8, SC 20 mg/kg): BQL (BQL—Below Quantitation Limit, <0.100 ng/mL)
- Assayed Concentrations of EFdA, Mean (Day 11, IM 20 mg/kg): BQL (BQL—Below Quantitation Limit, <0.100 ng/mL)
- Assayed Concentrations of EFdA, individual rats (Day 11, IM 20 mg/kg): BQL (BQL—Below Quantitation Limit, <0.100 ng/mL)
- Assayed Concentrations of EFdA, Mean (Day 11, SC 20 mg/kg): BQL (BQL—Below Quantitation Limit, <0.100 ng/mL)
- Assayed Concentrations of EFdA, individual rats (Day 11, SC 20 mg/kg): BQL (BQL—Below Quantitation Limit, <0.100 ng/mL)
- Assayed Concentrations of EFdA, Mean (Day 15, IM 20 mg/kg): BQL (BQL—Below Quantitation Limit, <0.100 ng/mL)
- Assayed Concentrations of EFdA, individual rats (Day 15, IM 20 mg/kg): BQL (BQL—Below Quantitation Limit, <0.100 ng/mL)
- Assayed Concentrations of EFdA, Mean (Day 15, SC 20 mg/kg): BQL (BQL—Below Quantitation Limit, <0.100 ng/mL)
- Assayed Concentrations of EFdA, individual rats (Day 15, SC 20 mg/kg): BQL (BQL—Below Quantitation Limit, <0.100 ng/mL)
- Assayed Concentrations of EFdA, Mean (Day 22, IM 20 mg/kg): BQL (BQL—Below Quantitation Limit, <0.100 ng/mL)
- Assayed Concentrations of EFdA, individual rats (Day 22, IM 20 mg/kg): BQL (BQL—Below Quantitation Limit, <0.100 ng/mL)
- Assayed Concentrations of EFdA, Mean (Day 22, SC 20 mg/kg): BQL (BQL—Below Quantitation Limit, <0.100 ng/mL)
- Assayed Concentrations of EFdA, individual rats (Day 22, SC 20 mg/kg): BQL (BQL—Below Quantitation Limit, <0.100 ng/mL)
- Assayed Concentrations of EFdA, Mean (Day 25, IM 20 mg/kg): BQL (BQL—Below Quantitation Limit, <0.100 ng/mL)
- Assayed Concentrations of EFdA, individual rats (Day 25, IM 20 mg/kg): BQL (BQL—Below Quantitation Limit, <0.100 ng/mL)
- Assayed Concentrations of EFdA, individual rats (Day 25, SC 20 mg/kg, 20 mg/kg): BQL (BQL—Below Quantitation Limit, <0.100 ng/mL)
- Assayed Concentrations of EFdA, Mean (Day 29, IM 20 mg/kg): BQL (BQL—Below Quantitation Limit, <0.100 ng/mL)
- Assayed Concentrations of EFdA, individual rats (Day 29, IM 20 mg/kg): BQL (BQL—Below Quantitation Limit, <0.100 ng/mL)
- Assayed Concentrations of EFdA, Mean (Day 29, SC 20 mg/kg): BQL (BQL—Below Quantitation Limit, <0.100 ng/mL)
- Assayed Concentrations of EFdA, individual rats (Day 29, SC 20 mg/kg): BQL (BQL—Below Quantitation Limit, <0.100 ng/mL)
- concentration at 0.5 h (intramuscular, 20 mg/kg, 0.5 hr, IM 20 mg/kg, read-out: Assayed Concentrations of EFdA, Mean): 921 ng/mL
- concentration at 0.5 h (intramuscular, 20 mg/kg, 0.5 hr, IM 20 mg/kg, read-out: Assayed Concentrations of EFdA, individual rats): 929 ng/mL
- concentration at 1 h (intramuscular, 20 mg/kg, 1 hr, IM 20 mg/kg, read-out: Assayed Concentrations of EFdA, Mean): 1330 ng/mL
- concentration at 1 h (intramuscular, 20 mg/kg, 1 hr, IM 20 mg/kg, read-out: Assayed Concentrations of EFdA, individual rats): 957 ng/mL
- concentration at 4 h (intramuscular, 20 mg/kg, 4 hr, IM 20 mg/kg, read-out: Assayed Concentrations of EFdA, Mean): 610 ng/mL
- concentration at 4 h (intramuscular, 20 mg/kg, 4 hr, IM 20 mg/kg, read-out: Assayed Concentrations of EFdA, individual rats): 662 ng/mL
- concentration at 7 h (intramuscular, 20 mg/kg, 7 hr, IM 20 mg/kg, read-out: Assayed Concentrations of EFdA, Mean): 286 ng/mL
- concentration at 24 h (intramuscular, 20 mg/kg, 24 hr, IM 20 mg/kg, read-out: Assayed Concentrations of EFdA, Mean): 19.8 ng/mL
- concentration at 48 h (intramuscular, 20 mg/kg, 48 hr, IM 20 mg/kg, read-out: Assayed Concentrations of EFdA, Mean): 2.18 ng/mL
- concentration at 72 h (intramuscular, 20 mg/kg, 72 hr, IM 20 mg/kg, read-out: Assayed Concentrations of EFdA, Mean): 0.29 ng/mL
- concentration at 72 h (intramuscular, 20 mg/kg, 72 hr, IM 20 mg/kg, read-out: Assayed Concentrations of EFdA, individual rats): 0.301 ng/mL
- concentration at 6 day (intramuscular, 20 mg/kg, Day 6, IM 20 mg/kg, read-out: Assayed Concentrations of EFdA, Mean): 0.1 ng/mL
- concentration at 6 day (intramuscular, 20 mg/kg, Day 6, IM 20 mg/kg, read-out: Assayed Concentrations of EFdA, individual rats): 0.102 ng/mL
- concentration at 0.5 h (sc, 20 mg/kg, 0.5 hr, SC 20 mg/kg, read-out: Assayed Concentrations of EFdA, Mean): 1280 ng/mL
- concentration at 1 h (sc, 20 mg/kg, 1 hr, SC 20 mg/kg, read-out: Assayed Concentrations of EFdA, Mean): 1430 ng/mL
- concentration at 4 h (sc, 20 mg/kg, 4 hr, SC 20 mg/kg, read-out: Assayed Concentrations of EFdA, Mean): 639 ng/mL
- concentration at 4 h (sc, 20 mg/kg, 4 hr, SC 20 mg/kg, read-out: Assayed Concentrations of EFdA, individual rats): 534 ng/mL
- concentration at 7 h (sc, 20 mg/kg, 7 hr, SC 20 mg/kg, read-out: Assayed Concentrations of EFdA, Mean): 303 ng/mL
- concentration at 7 h (sc, 20 mg/kg, 7 hr, SC 20 mg/kg, read-out: Assayed Concentrations of EFdA, individual rats): 320 ng/mL
- concentration at 24 h (sc, 20 mg/kg, 24 hr, SC 20 mg/kg, read-out: Assayed Concentrations of EFdA, Mean): 7.98 ng/mL
- concentration at 48 h (sc, 20 mg/kg, 48 hr, SC 20 mg/kg, read-out: Assayed Concentrations of EFdA, Mean): 0.68 ng/mL
- concentration at 48 h (sc, 20 mg/kg, 48 hr, SC 20 mg/kg, read-out: Assayed Concentrations of EFdA, individual rats): 0.771 ng/mL
- concentration at 72 h (sc, 20 mg/kg, 72 hr, SC 20 mg/kg, read-out: Assayed Concentrations of EFdA, Mean): 0.241 ng/mL
- concentration at 72 h (sc, 20 mg/kg, 72 hr, SC 20 mg/kg, read-out: Assayed Concentrations of EFdA, individual rats): 0.251 ng/mL
- concentration at 6 day (sc, 20 mg/kg, Day 6, SC 20 mg/kg, read-out: Assayed Concentrations of EFdA, Mean): 0.04 ng/mL
- concentration at 6 day (sc, 20 mg/kg, Day 6, SC 20 mg/kg, read-out: Assayed Concentrations of EFdA, individual rats): 0.117 ng/mL
- concentration at 25 day (sc, 20 mg/kg, Day 25, SC 20 mg/kg, read-out: Assayed Concentrations of EFdA, Mean): 0.221 ng/mL
- concentration at 25 day (sc, 20 mg/kg, Day 25, SC 20 mg/kg, read-out: Assayed Concentrations of EFdA, individual rats): 0.221 ng/mL
- detectable duration of exposure of EFdA (rat IM and SC administration of 20 mg/kg): less than 8 days
